Results as given in patent US5352667A, “Non-peptidic surrogates of the Arg-Gly-Asp sequence and pharmaceutical compositions comprising them” (priority 1991, dated 1994).
“Also recorded” adds a separate entry of the source.

Tests used:
DTH response to OX = assay: Inhibition of DTH response to OX in mice (ear swelling); format: in vivo, BALB/c mice; parameters: % inhibition of DTH response: concentration or dose not given beside the values; settings: I.V.; for Δ Ear swelling: ± SD, positive control 21 ± 2
Method: To examine the regulatory role of SF-6,5 on T cell immunity and lymphocyte migration in vivo, a delayed-type hypersensitivity (DTH) reaction experiment was performed in which groups of BALB/c mice (6 mice per group) were sensitized on the shaved abdomen with the skin allergen 4-ethoxymethylene-2-phenyl oxazolone (OX) (10 μl of 3% OX in acetone/olive oil) and challenged again 5 days later by applying OX to their ears. The increment in ear swelling was recorded 24 hours later as a measure of DTH. The individual measuring of ear swelling was blinded to the identity of the groups of mice. GRGDS, RGD surrogate compound SF-6,5 and RGE surrogate compound SF-6,6 were administrated I.V. in 200μl PBS into the tail vein on the indicated days. Control groups of mice were treated identically with PBS.
These findings indicate that modulation of cell-mediated immune reactions in vivo may be achieved by relatively low doses of non-peptidic RGD analogue, most probably by means of interfering with lymphocyte migration.

trypsin = assay: Treatment with trypsin (HPLC monitoring of hydrolysis); format: in vitro ADME; settings: 0.25% trypsin, 37° C., HPLC at 220 nm, aliquots 5, 30, 60 min
Method: Compound SF-6,5 and the GRGDS peptide (50 μg in 100 μl PBS) were incubated at 37° C. and exposed to 0.25% trypsin (Gibco; 50μl in modified Puck's buffer). Aliquots were taken after 5, 30 and 60 min and monitored by HPLC at 220 nm.

[1] = test system: tumor cell-induced metastases; assay: Inhibition of tumor cell-induced metastases in C57BL/6 mice; format: in vivo; settings: i.v. daily, 25μg of SF-6,5 per mouse, after induction of metastasis
GPIIb-IIIa = GPIIb-IIIa (Homo sapiens, UniProt P05106+P08514); assay: Inhibition of the binding capacity of anti-GPIIb-IIIa mAb (PAC-1) to platelets; settings: FIG. 6, 0-500μM, ADP-activated platelets
Method: To investigate whether the RGD surrogates actually bind to the GPIIb-IIIa integrin, their ability to compete with a monoclonal antibody (mAb) specific to GPIIb-IIIa was investigated. This mAb, designated PAC-1, specific for the activated receptor, binds GPIIb-IIIa in an RGD-dependent manner (Taub, R. et al. (1989) J.Biol.Chem. 264: 259).
ADP-activated platelets were incubated with FITC-conjugated PAC-1 mAb in the presence of various peptidic and non-peptidic compounds, as follows: the platelet rich plasma were gel-filtrated into modified Tryode's solution (137.5 mM Nacl, 4 mN Hepes, 2.6 mM KCl,1 mM MgCl2, 3.3 mM NaH2 PO4, 5.6 mM glucose at pH 7.4) containing 350μg/ml BSA (which was used as the incubation buffer in further steps; Tryode's/BSA). The final count in the cell assays was 2×10^6 per ml. The cells were then activated with 10μM ADP and epinephrine. To examine RGD peptides and related analogues as competitors for the binding capacity of the PAC-1 mAb to platelets, the cells were incubated in 50μl Tryode's/BSA supplemented with 1 mM CaCl2 for 30 min in 25° C., in the presence of 0-500μM peptides or peptide-analogues with 10μg/ml FITC labeled PAC-1. The fluorescence profile of the cells was determined using FACScan (Beckton Dickenson) at 488 nm. In FIG. 6: GRGDSPK (empty circles), GRGESP (filled triangles), compound SF-6,5 (empty triangles), compound SF-6,6 (filled circles) (the data shown here represent results obtained in one of three experiments which were essentially identical).

[2] = test system: B16-melanoma cells adhesion to VN; assay: Inhibition of B16-melanoma cell adhesion to VN; format: cell-based, murine; settings: for % inhibition of adhesion of B16-melanoma cells to VN / % Adhesion of B16-melanoma cells to VN: surrogates 0.2 mM; for % inhibition of adhesion of B16-melanoma cells to VN: * P<0.05; for % Adhesion of B16-melanoma cells to VN: none 68 ± 5
Method: To examine the adhesive properties of tumor cells, 1 μg/50μ/well of FN or 0.3μg/well of VN were added to 96-flat bottom microtiter wells for 12 h. Unbound proteins were then washed away and remaining binding sites were blocked with 0.1% BSA added to the wells for 2 h and washed. Murine B16-melanoma F-1 cells were metabolically labeled with ^35 S-methionine (New England Nuclear) for 2 h, chased for 18 h and extensively washed. The cell suspension was resuspened in RPMI supplemented with 1% BSA containing 1 mM CaCl2 and MgCl2. Tumor cell adhesion to control wells or to wells coated with BSA was always 2-5%. The tested non-peptidic surrogates, 0.2 mM in PBS, were used to pretreat the tumor cells for 15 min before seeding the cells *, P<0.05.
In a first series of experiments, the potential inhibitory action of the RGD surrogate SF-6,5 on adhesion of B16 melanoma cells to FN or VN was compared to that of the RGE surrogate SF-6,6 and to that of RGD, GRGDSPK and GRGESP peptides.

[3] = injected on days 1 to 6, * P<0.01

## N=C(N)NCCCCCC(=O)NCCCCC(=O)O [SF-6,5, 6-aza-7-oxo-12-quanidino-dodecanoic acid]
DTH response to OX
  Inhibition of DTH response, in words: inhibited the DTH response best when the mice were injected for 6 days; also recorded: better inhibitor of the DTH response than the GRGDS peptide
DTH response to OX; injected on day 1
  % inhibition of DTH response: 20%
  Δ Ear swelling: 16 ± 3 × 10^-2 mm
DTH response to OX; injected on days 1, 3
  % inhibition of DTH response: 34%
  Δ Ear swelling: 13 ± 2 × 10^-2 mm
DTH response to OX; injected on days 1, 3, 5
  % inhibition of DTH response: 62%
DTH response to OX; injected on days 1, 3, 5, * P<0.01
  Δ Ear swelling: 8 ± 2 × 10^-2 mm
DTH response to OX; injected on days 1 to 6
  % inhibition of DTH response: 95%
DTH response to OX; [3]
  Δ Ear swelling: 2 ± 1 × 10^-2 mm
trypsin
  Stability to trypsin: intact after 60 min; also recorded: completely resistant to trypsin-induced hydrolysis
[1]
  Inhibition of tumor cell-induced metastases: inhibition of tumor cell-induced metastases
GPIIb-IIIa
  Inhibition of PAC-1 binding to platelets, in words: inhibited PAC-1 staining of the cells in a dose-dependent manner
[2]; Table 2A
  B-16 melanoma cell adhesion to VN, in words: inhibited tumor cell adhesion to both FN and VN
[2]
  % inhibition of adhesion of B16-melanoma cells to VN: 42%
  % Adhesion of B16-melanoma cells to VN: 40 ± 5%

## N=C(N)NCCCCCC(=O)NCCCCCC(=O)O [SF-6,6]
DTH response to OX; injected on days 1 to 6
  % inhibition of DTH response: None
DTH response to OX; [3]
  Δ Ear swelling: 23 ± 4 × 10^-2 mm
[1]
  Inhibition of tumor cell-induced metastases: failed to inhibit metastases
GPIIb-IIIa
  Inhibition of PAC-1 binding to platelets, in words: failed to inhibit PAC-1 binding to the platelet integrin receptor
[2]
  % inhibition of adhesion of B16-melanoma cells to VN: 0%
  % Adhesion of B16-melanoma cells to VN: 70 ± 7%

## GRGDSPK [RGD peptide (Sigma)]
DTH response to OX; injected on days 1 to 6
  % inhibition of DTH response: 20%
DTH response to OX; [3]
  Δ Ear swelling: 17 ± 3 × 10^-2 mm
GPIIb-IIIa
  Inhibition of PAC-1 binding to platelets, in words: inhibited PAC-1 staining of the cells in a dose-dependent manner
[2]
  % inhibition of adhesion of B16-melanoma cells to VN: 86%
  % Adhesion of B16-melanoma cells to VN: 10 ± 2%
